Experimental data: article PMC7822874, “Chemoprotective antimalarials identified through quantitative high-throughput screening of Plasmodium blood and liver stage parasites” (Scientific Reports, 2021)
Where two headings read alike, the source gives them in different places.

Columns and labels:
[1] = system: P. berghei-ANKA-GFP-LucCON liver stage parasites in HepG2-A16-CD81EGFP cells; assay: P. berghei liver stage Pb-Luc assay, Method 1 (UCSD, 1536-well); type: cell-based, Plasmodium berghei; settings: Plasmodium berghei, 48 h, P. berghei liver stage, average of 2 wells on a 1536 well plate; for activity at 1 µM: 1 µM compound treatment (10 mM stocks); for activity at 3 µM: 3 µM compound treatment (10 mM stocks)
[2] = system: Plasmodium falciparum Dd2 asexual blood stage parasites; assay: microbe, parasite or virus in culture; parameters: species or system Plasmodium falciparum Dd2 in human erythrocytes; single determination (one 11-point concentration-response curve); settings: Plasmodium falciparum, DD2, Erythrocyte, 72 h; read-out: AC50
[3] = system: HepG2-A16-CD81EGFP cells; settings: average of 2 wells; for HepG2 1uM growth rep1 / HepG2 1uM growth rep2: HepG2, 1 µM compound treatment (10 mM stocks); for HepG2 1uM growth rep1 / HepG2 3uM growth rep1: replicate 1, normalized; for HepG2 1uM growth rep2 / HepG2 3uM growth rep2: replicate 2, normalized; for HepG2 3uM growth rep1 / HepG2 3uM growth rep2: HepG2, 3 µM compound treatment (10 mM stocks)
[4] = replicate 1, normalized, read-out: PbLuc 1uM growth rep1
[5] = replicate 2, normalized, read-out: PbLuc 1uM growth rep2
[6] = replicate 1, normalized, read-out: PbLuc 3uM growth rep1
[7] = replicate 2, normalized, read-out: PbLuc 3uM growth rep2

Row | Structure (SMILES) | activity at 1 µM [1, 4] [%] | activity at 1 µM [1, 5] [%] | activity at 3 µM [1, 6] [%] | activity at 3 µM [1, 7] [%] | AC50 [2] [nM] | HepG2 1uM growth rep1 [3] [%] | HepG2 1uM growth rep2 [3] [%] | HepG2 3uM growth rep1 [3] [%] | HepG2 3uM growth rep2 [3] [%]
1 | CC(C)CCN(CCC(C)C)CC(O)Cn1c2ccccc2c(=O)c2ccccc21 (stereo not drawn) [MLS001030199-01] | 128 | 103 | 76 | 87 | 1880 | 105 | 96 | 84 | 94
2 | CCCC(C)C(=O)Nc1ncc(S(=O)(=O)c2ccc([N+](=O)[O-])cc2)s1 (stereo not drawn) [MLS001034555-01] | 109 | 117 | 105 | 136 | 5960 | 95 | 92 | 93 | 94
3 | O=C(CSc1nc(Nc2ccccc2)nc(N2CCOCC2)n1)Nc1cc(Cl)ccc1O [MLS001035450-01] | 97 | 93 | 67 | 102 | 2370 | 100 | 92 | 83 | 88
4 | COc1cccc(NC(=O)CN(C)C(=O)c2ccc(-c3cccc(C(F)(F)F)c3)o2)c1 [MLS001071804-01] | 153 | 125 | 107 | 104 | 596 | 105 | 98 | 84 | 96
5 | CCCCN(C(=O)c1cccc(S(=O)(=O)N(C)c2ccc(C)cc2)c1)c1c(N)n(CCCC)c(=O)[nH]c1=O [MLS001128188-01] | 100 | 88 | 85 | 111 | 5310 | 96 | 92 | 90 | 93
6 | Cc1ccc(-c2c(C(=O)N/N=C/c3cccc(Cl)c3)nnn2-c2nonc2N)cc1 [MLS001139410-01] | 143 | 123 | 105 | 91 | 237 | 90 | 91 | 90 | 94
7 | Nc1nonc1-n1nnc(C(=O)N/N=C/c2ccc(Br)cc2)c1-c1ccc2c(c1)OCO2 [MLS001142619-01] | 115 | 112 | 108 | 122 | 422 | 91 | 88 | 86 | 93
8 | COc1ccc(NC(=O)C(c2ccc(Cl)cc2)C(C)C)cn1 (stereo not drawn) [MLS001149289-01] | 131 | 130 | 155 | 159 | 1880 | 104 | 98 | 90 | 87
9 | Cc1ccnc(NC(=O)c2cccc(S(=O)(=O)N3CCCc4ccccc43)c2)c1 [MLS001159724-01] | 100 | 97 | 38 | 52 | 2370 | 101 | 95 | 90 | 89
10 | CCOC(=O)C1CCN(Cc2cc(Cl)c3ccccc3c2O)CC1 [MLS001171913-01] | 100 | 93 | 91 | 110 | 1880 | 88 | 93 | 88 | 86
11 | CC(NCc1ccccc1O)C12CC3CC(CC(C3)C1)C2 (stereo not drawn) [MLS001173343-01] | 106 | 90 | 70 | 88 | 94.4 | 109 | 103 | 93 | 102
12 | COc1cc(C)cc(CN2CCC(Cc3ccccc3)CC2)c1O [MLS001178265-01] | 83 | 95 | 81 | 123 | 750 | 101 | 92 | 87 | 88
13 | CCOC(=O)c1c(CN2CCN(c3ccccc3)CC2)oc2cc(Br)c(O)cc12 [MLS001198242-01] | 136 | 107 | 96 | 86 | 1880 | 109 | 100 | 87 | 95
14 | COc1cccc(-c2c(C#N)c(N)nc3c2c(C)nn3-c2ccccc2)c1O [MLS001214341-01] | 118 | 95 | 106 | 118 | 1500 | 104 | 95 | 90 | 91
15 | COc1ccc(C2c3[nH]c4ccccc4c3C[C@H]3C(=O)N(C4CCN(Cc5ccccc5)CC4)CC(=O)N23)cc1OC (stereo partly drawn) [MLS001215281-01] | 95 | 94 | 66 | 79 | 2990 | 107 | 95 | 91 | 90
16 | O=C(c1ccc([N+](=O)[O-])o1)N1CCN(c2nc3c(Cl)cccc3s2)CC1 [MLS001234208-01] | 67 | 72 | 36 | 52 | 4220 | 103 | 93 | 86 | 94
17 | COc1ccc2nc(N3CCN(C(=O)c4ccc([N+](=O)[O-])o4)CC3)sc2c1 [MLS001234236-01] | 100 | 81 | 91 | 103 | 4730 | 91 | 90 | 89 | 89
18 | COc1cccc2sc(N3CCN(C(=O)c4ccc([N+](=O)[O-])o4)CC3)nc12 [MLS001234267-01] | 111 | 94 | 69 | 79 | 4730 | 103 | 96 | 94 | 93
19 | Cc1ccc(C)c2sc(N3CCN(C(=O)c4ccc([N+](=O)[O-])o4)CC3)nc12 [MLS001234268-01] | 97 | 91 | 57 | 53 | 4730 | 104 | 96 | 90 | 99
20 | COc1cc2ccccc2cc1C(=O)N1CCCC(C(F)(F)F)C1 (stereo not drawn) [MLS002180647-01] | 90 | 108 | 85 | 115 | 5310 | 105 | 90 | 83 | 89
21 | COc1ccc([C@@]2(C(C)C)ON(c3ccccc3C(F)(F)F)C2=O)cc1 [MLS002206606-01] | 98 | 100 | 88 | 122 | 4220 | 102 | 93 | 83 | 85
22 | CCn1cnc2c(Nc3cc(F)cc(F)c3)nc(C#N)nc21 [MLS002471782-01] | 155 | 128 | 149 | 187 | 2370 | 88 | 82 | 83 | 89
